Holding throughout (experiment): DTP human tumour cell line panel, 48 h
Experiment [1] deals with 786-0.
Experiment [2] deals with A549.
The test system of experiment [3] is BT-549.
The test system of experiment [4] is HCT-116.
Experiment [5] deals with HCT-15.
Experiment [6] relates to Hs-578T.
Experiment [7] relates to IGROV-1.
Experiment [8] concerns LOX IMVI.
For experiment [9], the system named is M14.
Experiment [10] relates to MOLT-4.
Experiment [11] relates to Malme-3M.
In experiment [12] the test system is NCI-H226.
Experiment [13] deals with NCI-H522.
Experiment [14] has as its system NCI/ADR-RES.
In experiment [15] the test system is OVCAR-3.
Experiment [16] has as its system RPMI-8226.
Experiment [17] has as its system SF-539.
Experiment [18] has as its system SK-MEL-28.
For experiment [19], the system named is SK-MEL-5.
Experiment [20] relates to TK-10.

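Following 48 hours of exposure in 96-well plates, responses at five concentrations were used to interpolate endpoints linearly. GI50 marks 50% less growth.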 Activity calls are given as the source filed them. Rule as the data show it: active = GI50 up to about 1.1 µM and inactive = higher.

One may read the GI50 as the concentration giving 50% growth inhibition.

On to `NS(=O)(=O)c1cc(Br)c(/N=N\c2ccc(O)c3ncccc23)c(Br)c1`, for which the GI50 in experiment [1] is 23.6 µM (inactive); in experiment [2], 18.5 µM (inactive); in [3], 16.4 µM (inactive); in experiment [4] it was 26.7 µM (inactive); in experiment [5], 4.27 µM; in [6] it was 21.8 µM (inactive). In addition, the GI50 is 11 µM (inactive) in experiment [7]; 20.9 µM (inactive) in [8]; 13.1 µM (inactive) in [9]; 3.99 µM (inactive) in [10]; 13.5 µM (inactive) in [11]; 45 µM (inactive) in experiment [12]. The GI50 in [13] was 16.5 µM (inactive); in experiment [14], 13.2 µM (inactive); in experiment [15] it was 54.6 µM (inactive); in experiment [16] it was 7.26 µM (inactive); in experiment [17], 25.9 µM (inactive); in experiment [18], 27.4 µM (inactive). For the same molecule, the GI50 was 30.7 µM (inactive) in [19] and 22.3 µM (inactive) in experiment [20].
For `OCC1OC(NCCNCCNC2OC(CO)C(O)C(O)C2O)C(O)C(O)C1O` (stereo unspecified), the GI50 in experiment [1] is > 100 µM (inactive); in experiment [2], > 100 µM (inactive); in [3] it was > 100 µM (inactive); in experiment [4], > 100 µM (inactive); in [5] it was above 100 µM; in [6], > 100 µM (inactive). The GI50 in experiment [7], in experiment [8], in experiment [9], in experiment [10], in [11] and in [12] was > 100 µM (inactive) throughout. For the same molecule, the GI50 in experiment [13], in experiment [14], in experiment [15], in experiment [16], in experiment [17] and in experiment [18] was > 100 µM (inactive) in each case. Besides, the GI50 in experiment [19] and in experiment [20] was > 100 µM (inactive) in each case.
For the molecule `O=C(O)CNCP(=O)(O)O` [GLYPHOSATE], the GI50 was > 100 µM (inactive) in experiment [1]; > 100 µM (inactive) in experiment [2]; > 100 µM (inactive) in experiment [3]; > 100 µM (inactive) in [4]; above 100 µM in [5]; > 100 µM (inactive) in experiment [6]. For the same molecule, the GI50 in [7], in [8], in experiment [9], in experiment [10], in experiment [11] and in [12] was > 100 µM (inactive) throughout. Also, the GI50 in [13], in experiment [14], in experiment [15], in experiment [16], in [17] and in experiment [18] was > 100 µM (inactive) throughout. Further, the GI50 in [19] and in experiment [20] was > 100 µM (inactive) each time.
Consider `CCC/C=C/c1cc2c(cc1O)CC[C@@H]1[C@@H]2CC[C@]2(C)[C@@H](O)CC[C@@H]12`, for which the GI50 was 15.2 µM (inactive) in experiment [1]; 18.1 µM (inactive) in experiment [2]; 18.8 µM (inactive) in [3]; 18.6 µM in experiment [5]; 21.7 µM (inactive) in [6]; 21.1 µM (inactive) in experiment [7]. The GI50 in [8] was 14.8 µM (inactive); in experiment [9] it was 20.3 µM (inactive); in experiment [10], 18.3 µM (inactive); in experiment [11], 16.5 µM (inactive); in experiment [12], 24.7 µM (inactive); in experiment [13], 17.3 µM (inactive). In addition, the GI50 is 18.5 µM (inactive) in experiment [14]; 19.2 µM (inactive) in [15]; 14 µM (inactive) in experiment [16]; 19.3 µM (inactive) in experiment [18]; 16.4 µM (inactive) in experiment [19]; 20.7 µM (inactive) in [20].
As to `Cc1ccc(NC(=O)CC(=O)n2nc(C)c(/N=N/c3cccc(C)c3)c2C)cc1`, the GI50 in [1] was > 100 µM (inactive); in experiment [2], > 100 µM (inactive); in experiment [3], > 100 µM (inactive); in experiment [4], > 100 µM (inactive); in experiment [5] it was above 100 µM; in experiment [6] it was 38.5 µM (inactive). In addition, the GI50 in experiment [7], in [8], in experiment [9], in experiment [10], in experiment [11] and in experiment [12] was > 100 µM (inactive) throughout. The GI50 in [13], in experiment [14], in experiment [15], in [16], in experiment [17] and in experiment [18] was > 100 µM (inactive) each time. Also, the GI50 in experiment [19] and in [20] was > 100 µM (inactive) in each case.
On to `Oc1c(O)c(Cc2ccccc2)c(Cc2ccccc2)c(Cc2ccccc2)c1Cc1ccccc1`, for which the GI50 is > 10 µM (inactive) in experiment [1]; > 10 µM (inactive) in experiment [2]; > 10 µM (inactive) in experiment [3]; > 10 µM (inactive) in [4]; above 10 µM in experiment [5]; > 10 µM (inactive) in experiment [6]. For the same molecule, the GI50 in experiment [7], in experiment [8], in [9], in [10], in experiment [11] and in experiment [12] was > 10 µM (inactive) each time. The GI50 in experiment [13], in experiment [14], in experiment [15], in [16], in [17] and in experiment [18] was > 10 µM (inactive) each time. Besides, the GI50 in [19] and in [20] was > 10 µM (inactive) throughout.
In the case of `ON[C@H]1C[C@@H](n2cnc3c(NC4CC4)ncnc32)[C@H](O)[C@@H]1O`, the GI50 is > 100 µM (inactive) in experiment [1]; > 100 µM (inactive) in experiment [2]; > 100 µM (inactive) in experiment [3]; > 100 µM (inactive) in experiment [4]; above 100 µM in [5]; > 100 µM (inactive) in experiment [6]. Besides, the GI50 in experiment [7], in experiment [8], in [9], in experiment [10], in [11] and in experiment [12] was > 100 µM (inactive) in each case. Also, the GI50 in experiment [13], in experiment [14], in experiment [15], in [16], in experiment [17] and in [18] was > 100 µM (inactive) throughout. For the same molecule, the GI50 in experiment [19] and in [20] was > 100 µM (inactive) throughout.
As to `CCC[N+](C)(C)CCCNC(=O)c1c(O)c2ccccc2[nH]c1=O`, the GI50 was > 100 µM (inactive) in [1]; 46.3 µM (inactive) in experiment [2]; 89.1 µM (inactive) in experiment [3]; > 100 µM (inactive) in experiment [4]; above 100 µM in experiment [5]; > 100 µM (inactive) in experiment [6]. Moreover, the GI50 in experiment [7] was 89.1 µM (inactive); in experiment [8] it was > 100 µM (inactive); in [10], > 100 µM (inactive); in experiment [11] it was 24.3 µM (inactive); in experiment [12], 77.1 µM (inactive); in experiment [13], > 100 µM (inactive). Further, the GI50 in experiment [14] was > 100 µM (inactive); in experiment [15], > 100 µM (inactive); in experiment [16] it was > 100 µM (inactive); in [17], > 100 µM (inactive); in experiment [18] it was > 100 µM (inactive); in [19], 15.9 µM (inactive). The GI50 in [20] was > 100 µM (inactive).
On to `C[n+]1cn(-c2nc3ccccc3nc2[N-]S(=O)(=O)c2ccccc2)c2ccccc21`, for which the GI50 was > 100 µM (inactive) in experiment [1]; > 100 µM (inactive) in experiment [2]; > 100 µM (inactive) in [3]; > 100 µM (inactive) in [4]; above 100 µM in experiment [5]; > 100 µM (inactive) in experiment [6]. In addition, the GI50 in experiment [7], in experiment [8], in [9], in [10], in experiment [11] and in [12] was > 100 µM (inactive) each time. In addition, the GI50 is 0.222 µM (active) in experiment [13]; > 100 µM (inactive) in experiment [14]; > 100 µM (inactive) in experiment [15]; > 100 µM (inactive) in experiment [16]; > 100 µM (inactive) in experiment [17]; > 100 µM (inactive) in [18]. Also, the GI50 in experiment [19] and in experiment [20] was > 100 µM (inactive) each time.
Turning to `CC(C)(C)OC(=O)NC(Cc1ccc(O)cn1)C(N)=O` (stereo unspecified), the GI50 in [1] was > 100 µM (inactive); in experiment [2], > 100 µM (inactive); in [3], > 100 µM (inactive); in experiment [4], > 100 µM (inactive); in [5], above 100 µM; in experiment [6], > 100 µM (inactive). In addition, the GI50 in [7], in [8], in experiment [10], in experiment [11], in experiment [12] and in [13] was > 100 µM (inactive) each time. In addition, the GI50 in [14], in [15], in experiment [16], in experiment [17], in [18] and in [19] was > 100 µM (inactive) throughout. Further, the GI50 in experiment [20] is > 100 µM (inactive).
